The record followed here is ChEMBL document CHEMBL1255537, “Design, synthesis and docking studies on phenoxy-3-piperazin-1-yl-propan-2-ol derivatives as protein tyrosine phosphatase 1B inhibitors” (2010).

The test system of assay [1] is Rattus norvegicus. The assay can be described thus: Antihyperglycemic activity in rat sucrose loaded model assessed as reduction of blood glucose level at 100 mg/kg, po. In kind it is functional.
The target in assay [2] is T1, Tyrosine-protein phosphatase non-receptor type 1 (Homo sapiens) (UniProt P18031).
T1 sequence (whole entry): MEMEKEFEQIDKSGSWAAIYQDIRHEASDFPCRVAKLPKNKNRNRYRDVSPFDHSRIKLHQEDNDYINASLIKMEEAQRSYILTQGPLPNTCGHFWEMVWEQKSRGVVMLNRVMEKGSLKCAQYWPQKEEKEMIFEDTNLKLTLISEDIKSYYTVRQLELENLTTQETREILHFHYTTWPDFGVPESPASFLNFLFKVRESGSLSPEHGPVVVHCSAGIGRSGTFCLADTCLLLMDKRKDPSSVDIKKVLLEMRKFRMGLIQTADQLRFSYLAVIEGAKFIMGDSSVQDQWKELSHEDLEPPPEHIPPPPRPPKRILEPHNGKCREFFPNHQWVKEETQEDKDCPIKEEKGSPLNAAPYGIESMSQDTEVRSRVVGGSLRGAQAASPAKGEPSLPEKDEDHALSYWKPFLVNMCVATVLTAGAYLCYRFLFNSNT
The assay can be described thus: Inhibition of PTP1B assessed as p-nitrophenolate ions release at 100 uM.

The subject of assay [3] is Rattus norvegicus. The assay can be described thus: Antihyperglycemic activity in rat streptozotocin-induced diabetic model assessed as reduction of blood glucose level at 100 mg/kg, po after 24 hrs. Type of assay: functional.
Assay [4] relates to Rattus norvegicus. Put plainly: Antihyperglycemic activity in rat streptozotocin-induced diabetic model assessed as reduction of blood glucose level at 100 mg/kg, po after 5 hrs. Type of assay: functional.

As to `OC(COc1ccc(Cl)cc1)CN1CCN(C/C=C/c2ccccc2)CC1` (stereo unspecified), the inhibition in vivo at 100 mg/kg in assay [1] amounted to 14.6%. Besides, the inhibition in assay [2] stood at 7.63%.
For the compound `O=[N+]([O-])c1ccc(N2CCN(CC(O)COc3ccc(Cl)cc3)CC2)cc1` (stereo unspecified), the inhibition in vivo at 100 mg/kg is 24.8% in assay [1], 13.6% in assay [3] and 18.9% in assay [4]. The inhibition in assay [2] amounted to 35.9%.
Turning to `N#Cc1ccc(OCC(O)CN2CCN(c3cccc(C(F)(F)F)c3)CC2)cc1` (stereo unspecified), the inhibition in vivo at 100 mg/kg in assay [1] stood at 49.7%. Further, the inhibition in assay [2] came out at 18.8%.
Take `O=[N+]([O-])c1ccc(N2CCN(CC(O)COc3ccc(F)cc3)CC2)cc1` (stereo unspecified): the figures for the inhibition in vivo at 100 mg/kg in assay [1], in assay [3] and in assay [4] were 40.2%, 10.8% and 14.4%, respectively. In addition, in assay [2], the inhibition came to 24%.
Take `N#Cc1ccc(OCC(O)CN2CCN(Cc3ccc4c(c3)OCO4)CC2)cc1` (stereo unspecified): the inhibition in vivo at 100 mg/kg in assay [1] was found to be 14%. Moreover, the inhibition in assay [2] stood at 0.5%.
In the case of `N#Cc1ccc(OCC(O)CN2CCN(c3ccccn3)CC2)cc1` (stereo unspecified), the inhibition in vivo at 100 mg/kg in assay [1] came to 39.6%. Further, the inhibition in assay [2] turned out to be 1.8%.
`COc1ccccc1N1CCN(CC(O)COc2ccc(C#N)cc2)CC1` (stereo unspecified): the inhibition in vivo at 100 mg/kg in assay [1] worked out at 33.5%. Further, the inhibition in assay [2] is 2.6%.
In the case of `Cc1ccc(N2CCN(CC(O)COc3ccc(C#N)cc3)CC2C)cc1` (stereo unspecified), the results for the inhibition in vivo at 100 mg/kg in assay [1], in assay [3] and in assay [4] were 40.3%, 32% and 26.8%, respectively. The inhibition in assay [2] is 31.6%.
For `N#Cc1ccc(OCC(O)CN2CCN(c3ccc(F)cc3)CC2)cc1` (stereo unspecified), the inhibition in vivo at 100 mg/kg in assay [1] came out at 38.6%. For the same compound, in assay [2], the inhibition is 3.6%.
For the compound `CN(C)C(=N)NC(=N)N` [METFORMIN], the inhibition in vivo at 100 mg/kg in assay [1] came out at 42%; in assay [3] it was 29.8%; in assay [4], 28%.
For `CN1CCN(CC(O)COc2ccc(Cl)cc2)CC1` (stereo unspecified), the inhibition in vivo at 100 mg/kg in assay [1] amounted to 2.61%. Besides, in assay [2], the inhibition was determined as 2.4%.
As to `N#Cc1ccc(OCC(O)CN2CCN(c3ccccc3)CC2)cc1` (stereo unspecified), in assay [1], the inhibition in vivo at 100 mg/kg was determined as 56.7%. Further, the inhibition in assay [2] was found to be 4.6%.
Take `OC(COc1ccc(Cl)cc1)CN1CCN(c2ccc(Cl)c(Cl)c2)CC1` (stereo unspecified): in assay [1], the inhibition in vivo at 100 mg/kg came out at 3.52%. Moreover, the inhibition in assay [2] is 24.6%.
Taken in the same sequence, the figures for `COc1ccc(N2CCN(CC(O)COc3ccc(Cl)cc3)CC2)cc1` (stereo unspecified) were 4.6% and 9.21%.
For the compound `N#Cc1ccc(OCC(O)CN2CCN(Cc3ccccc3)CC2)cc1` (stereo unspecified), the values for the inhibition in vivo at 100 mg/kg in assay [1], in assay [3] and in assay [4] were 39.6%, 14.7% and 25.3%, respectively. In assay [2], the inhibition amounted to 5.1%.
`N#Cc1ccc(OCC(O)CN2CCN(c3cccc(Cl)c3)CC2)cc1` (stereo unspecified): in assay [1], the inhibition in vivo at 100 mg/kg was determined as 16.5%. The inhibition in assay [2] is 1.5%.
